Laboratory results published in paper PMC8201645 (Journal of medicinal chemistry, 2020).
Like-named read-outs stand apart in the source and are kept apart here.

Legend:
[1] = molecular target: T1, PPARγ (Homo sapiens, UniProt P37231); conditions: TR-FRET-based assay
T1 sequence (P37231 235-505 limits assumed): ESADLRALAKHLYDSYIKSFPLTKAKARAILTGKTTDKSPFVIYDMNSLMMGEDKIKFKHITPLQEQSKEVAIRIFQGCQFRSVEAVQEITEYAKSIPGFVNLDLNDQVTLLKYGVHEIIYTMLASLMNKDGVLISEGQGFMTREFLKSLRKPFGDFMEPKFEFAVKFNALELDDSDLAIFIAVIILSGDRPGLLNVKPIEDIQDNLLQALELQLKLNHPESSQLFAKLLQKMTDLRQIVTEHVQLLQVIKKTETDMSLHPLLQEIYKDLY

[2] = molecular target: T2, PPARδ-LBD (Homo sapiens, UniProt Q03181)
T2 sequence (Q03181 211-439 limits assumed): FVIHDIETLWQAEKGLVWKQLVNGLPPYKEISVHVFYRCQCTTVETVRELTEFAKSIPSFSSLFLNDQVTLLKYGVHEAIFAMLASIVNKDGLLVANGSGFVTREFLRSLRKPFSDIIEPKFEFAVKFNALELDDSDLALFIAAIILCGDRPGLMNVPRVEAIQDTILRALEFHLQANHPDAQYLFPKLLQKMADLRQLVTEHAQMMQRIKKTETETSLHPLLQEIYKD

[3] = molecular target: T3, PPARδ (Homo sapiens, UniProt Q03181); conditions: TR-FRET-based assay
T3 sequence (Q03181 171-441 limits assumed): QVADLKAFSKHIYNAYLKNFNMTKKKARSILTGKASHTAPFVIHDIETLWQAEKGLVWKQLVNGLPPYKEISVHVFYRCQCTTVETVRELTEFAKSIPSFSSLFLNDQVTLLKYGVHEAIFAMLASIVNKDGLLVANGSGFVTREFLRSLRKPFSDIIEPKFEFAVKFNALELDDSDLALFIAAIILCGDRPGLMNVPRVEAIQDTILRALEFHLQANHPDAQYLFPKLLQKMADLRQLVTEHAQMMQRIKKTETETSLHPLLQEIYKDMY

[4] = molecular target: T4, human A3AR (Homo sapiens, UniProt P0DMS8); conditions: at 10 μM; previously reported; cited from earlier work
T4 sequence (P0DMS8 1-318): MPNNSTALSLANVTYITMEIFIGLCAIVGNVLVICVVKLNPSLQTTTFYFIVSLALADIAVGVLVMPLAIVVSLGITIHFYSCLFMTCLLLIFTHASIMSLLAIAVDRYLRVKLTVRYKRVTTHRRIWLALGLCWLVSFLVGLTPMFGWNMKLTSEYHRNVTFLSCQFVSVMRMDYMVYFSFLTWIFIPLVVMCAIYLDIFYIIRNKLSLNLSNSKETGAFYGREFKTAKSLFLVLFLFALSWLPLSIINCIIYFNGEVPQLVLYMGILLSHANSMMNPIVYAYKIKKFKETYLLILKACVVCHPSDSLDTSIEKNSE

[5] = test system: hBM-MSCs; conditions: 10 μM cotreated with IDX medium for 5 d
[6] = molecular target: T2, PPARδ-LBD; remark: listed apart in the source
[7] = molecular target: T5, PPARγ-LBD (Homo sapiens, UniProt P37231); conditions: fluorescein-TRAP220/DRIP peptide
T5 sequence (P37231 238-503 limits assumed): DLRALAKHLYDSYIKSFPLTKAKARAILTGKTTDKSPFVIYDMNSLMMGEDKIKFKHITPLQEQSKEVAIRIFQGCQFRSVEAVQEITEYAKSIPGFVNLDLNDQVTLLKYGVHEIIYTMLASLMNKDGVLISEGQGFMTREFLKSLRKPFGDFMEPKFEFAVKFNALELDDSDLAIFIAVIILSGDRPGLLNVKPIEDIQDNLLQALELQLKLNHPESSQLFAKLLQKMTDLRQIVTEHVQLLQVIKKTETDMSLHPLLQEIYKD

[8] = molecular target: T4, human A3AR; conditions: at 10 μM

| SMILES | interaction between PPARδ-LBD and corepressor peptide SMRT-ID2 [2] | hA3AR % replacement [4] [% at 10 μM] | adiponectin production compared to the IDX vehicle control [5] | recruitment of coactivator peptide C33 to PPARδ-LBD [6] | also measured |
| --- | --- | --- | --- | --- | --- |
| O[C@@H]1[C@H](O)CS[C@H]1Cn1cnc2c(NCc3cccc(F)c3)nc(Cl)nc21 [4a, (2S,3R,4S)-2-((2-Chloro-6-((3-fluorobenzyl)amino)-9H-purin-9-yl)methyl)tetrahydrothiophene-3,4-diol] | significantly increased the interaction between PPARδ-LBD and the corepressor peptide | 17 | significantly promoted adiponectin production | no effect on the recruitment of coactivator peptide | PPARγ-binding activity (in words) [1]: significant dual receptor-binding activity; PPARδ-binding activity (in words) [3]: significant dual receptor-binding activity |
| O[C@@H]1[C@H](O)CS[C@H]1Cn1cnc2c(NCc3cccc(Cl)c3)nc(Cl)nc21 [4b, (2S,3R,4S)-2-((2-Chloro-6-((3-chlorobenzyl)amino)-9H-purin-9-yl)methyl)tetrahydrothiophene-3,4-diol] |  | 13 |  |  |  |
| O[C@@H]1[C@H](O)CS[C@H]1Cn1cnc2c(NCc3cccc(Br)c3)nc(Cl)nc21 [4c, (2S,3R,4S)-2-((6-((3-Bromobenzyl)amino)-2-chloro-9H-purin-9-yl)methyl)tetrahydrothiophene-3,4-diol] | significantly increased the interaction between PPARδ-LBD and the corepressor peptide | 21 | significantly promoted adiponectin production | no effect on the recruitment of coactivator peptide | PPARγ-binding activity (in words) [1]: significant dual receptor-binding activity; PPARδ-binding activity (in words) [3]: significant dual receptor-binding activity |
| O[C@@H]1[C@H](O)CS[C@H]1Cn1cnc2c(NCc3cccc(I)c3)nc(Cl)nc21 [4d, (2S,3R,4S)-2-((2-Chloro-6-((3-iodobenzyl)amino)-9H-purin-9-yl)-methyl)tetrahydrothiophene-3,4-diol] | significantly increased the interaction between PPARδ-LBD and the corepressor peptide | 10 |  | no effect on the recruitment of coactivator peptide | PPARδ corepressor recruitment in presence of PPARδ agonist 27 ([2]; 27 (1 μM), 4d (10 μM), 28 (1 μM)): significantly inhibited by 27; PPARδ-binding activity (in words) [3]: significant dual receptor-binding activity |
| O[C@@H]1[C@H](O)CS[C@H]1Cn1cnc2c(NCc3cccc(F)c3)ncnc21 [4e, (2S,3R,4S)-2-((6-((3-Fluorobenzyl)amino)-9H-purin-9-yl)methyl)-tetrahydrothiophene-3,4-diol] |  | 9 |  |  |  |
| O[C@@H]1[C@H](O)CS[C@H]1Cn1cnc2c(NCc3cccc(Cl)c3)ncnc21 [4f, (2S,3R,4S)-2-((6-((3-Chlorobenzyl)amino)-9H-purin-9-yl)methyl)-tetrahydrothiophene-3,4-diol] |  | 9 |  |  |  |
| O[C@@H]1[C@H](O)CS[C@H]1Cn1cnc2c(NCc3cccc(Br)c3)ncnc21 [4g, (2S,3R,4S)-2-((6-((3-Bromobenzyl)amino)-9H-purin-9-yl)methyl)-tetrahydrothiophene-3,4-diol] |  | 6 |  |  |  |
| O[C@@H]1[C@H](O)CS[C@H]1Cn1cnc2c(NCc3cccc(I)c3)ncnc21 [4h, (2S,3R,4S)-2-((6-((3-Iodobenzyl)amino)-9H-purin-9-yl)methyl)-tetrahydrothiophene-3,4-diol] |  | 14 |  |  |  |
| CC#Cc1nc(NCc2cccc(F)c2)c2ncn(C[C@@H]3SC[C@@H](O)[C@H]3O)c2n1 [4i, (2S,3R,4S)-2-((6-((3-Fluorobenzyl)amino)-2-(prop-1-yn-1-yl)-9H-purin-9-yl)methyl)tetrahydrothiophene-3,4-diol] |  |  | significantly promoted adiponectin production |  |  |
| CC#Cc1nc(NCc2cccc(Cl)c2)c2ncn(C[C@@H]3SC[C@@H](O)[C@H]3O)c2n1 [4j, (2S,3R,4S)-2-((6-((3-Chlorobenzyl)amino)-2-(prop-1-yn-1-yl)-9H-purin-9-yl)methyl)tetrahydrothiophene-3,4-diol] |  |  |  |  | coactivator peptide recruitment to PPARγ-LBD [7]: no statistical significance |
| CC#Cc1nc(NCc2cccc(Br)c2)c2ncn(C[C@@H]3SC[C@@H](O)[C@H]3O)c2n1 [4k, (2S,3R,4S)-2-((6-((3-Bromobenzyl)amino)-2-(prop-1-yn-1-yl)-9H-purin-9-yl)methyl)tetrahydrothiophene-3,4-diol] |  |  | significantly promoted adiponectin production |  |  |
| CC#Cc1nc(NCc2cccc(I)c2)c2ncn(C[C@@H]3SC[C@@H](O)[C@H]3O)c2n1 [4l, (2S,3R,4S)-2-((6-((3-Iodobenzyl)amino)-2-(prop-1-yn-1-yl)-9H-purin-9-yl)methyl)tetrahydrothiophene-3,4-diol] |  |  | significantly promoted adiponectin production |  |  |
| O[C@@H]1[C@H](O)CO[C@H]1Cn1cnc2c(NCc3cccc(Cl)c3)nc(Cl)nc21 [4n, (2S,3R,4R)-2-((2-Chloro-6-((3-chlorobenzyl)amino)-9H-purin-9-yl)methyl)tetrahydrofuran-3,4-diol] | significantly increased the interaction between PPARδ-LBD and the corepressor peptide |  | significantly promoted adiponectin production | no effect on the recruitment of coactivator peptide |  |
| O[C@@H]1[C@H](O)CO[C@H]1Cn1cnc2c(NCc3cccc(Br)c3)nc(Cl)nc21 [4o, (2S,3R,4R)-2-((6-((3-Bromobenzyl)amino)-2-chloro-9H-purin-9-yl)methyl)tetrahydrofuran-3,4-diol] | significantly increased the interaction between PPARδ-LBD and the corepressor peptide |  | significantly promoted adiponectin production | no effect on the recruitment of coactivator peptide |  |
| O[C@@H]1[C@H](O)CO[C@H]1Cn1cnc2c(NCc3cccc(I)c3)nc(Cl)nc21 [4p, (2S,3R,4R)-2-((2-Chloro-6-((3-iodobenzyl)amino)-9H-purin-9-yl)-methyl)tetrahydrofuran-3,4-diol] |  |  |  |  | hA3AR % replacement [8]: 3% at 10 μM |
